In the CombiSolv-Exp solvation set (Vermeire and Green 2021):
Each block holds one compound with its values, some of them ahead of it.

Test: solvent given as SMILES
[1] = in CCCCCCCCC=CCCCCCCCC(=O)OCC(COC(=O)CCCCCCCC=CCCCCCCCC)OC(=O)CCCCCCCC=CCCCCCCCC

solvation free energy, 298 K (in O): -13.4 kcal/mol
Compound: CCOCCOC(=O)c1ccccc1C(=O)OCCOCC

solvation free energy, 298 K (in O): -6.02 kcal/mol
Compound: CCNCc1ccc(C)cc1

solvation free energy, 298 K (in CC(C)CC(C)(C)C): -7.63 kcal/mol
Compound: CNC(=O)c1ccccc1

solvation free energy, 298 K (in CC(C)c1ccccc1): -4.1 kcal/mol
solvation free energy, 298 K (in CCc1ccccc1): -4.58 kcal/mol
solvation free energy, 298 K (in O): -10.2 kcal/mol
Compound: NC=O

Compound: O=[O+][O-]
solvation free energy, 298 K (in COC(C)=O): -0.29 kcal/mol
solvation free energy, 298 K (in O): 0.82 kcal/mol

solvation free energy, 298 K (in O): 1.13 kcal/mol
Compound: CC(C)C1CCC2(C)C3CC4C(C13)C42C (stereo not drawn)

solvation free energy, 298 K (in CC(C)CC(C)(C)C): -3.13 kcal/mol
solvation free energy, 298 K (in CO): -3 kcal/mol
solvation free energy, 298 K (in O): -1.07 kcal/mol
solvation free energy, 298 K (in OCCOCCOCCOCCO): -2.7 kcal/mol
Compound: CCS

Compound: Clc1ccc(-c2ccc(Cl)cc2)cc1
solvation free energy, 298 K [1]: -10.9 kcal/mol
solvation free energy, 298 K (in CCCCCCCCO): -10.7 kcal/mol
solvation free energy, 298 K (in O): -2.91 kcal/mol

solvation free energy, 298 K (in CCCCCC): -3.74 kcal/mol
Compound: CC(C)=NO

solvation free energy, 298 K (in O): -2.56 kcal/mol
Compound: CC(C)C(=O)C(C)C

solvation free energy, 298 K (in C=CCCCCCCCCCCCCCC): -3.42 kcal/mol
solvation free energy, 298 K (in CN1CCCC1=O): -3.06 kcal/mol
solvation free energy, 298 K (in CN(C)C=O): -3.12 kcal/mol
solvation free energy, 298 K (in O): 1.47 kcal/mol
Compound: CCC=C(C)C

Compound: CCOP(=S)(OCC)Oc1nc(Cl)c(Cl)cc1Cl
solvation free energy, 298 K [1]: -14.4 kcal/mol

Compound: C=CCCl
solvation free energy, 298 K (in O): -0.57 kcal/mol

solvation free energy, 298 K (in O): 0.29 kcal/mol
Compound: CCCCCCCCl

Compound: CN1C2CCC1CC(OC(=O)C(CO)c1ccccc1)C2 (stereo not drawn)
solvation free energy, 298 K (in CCO): -18 kcal/mol

solvation free energy, 298 K (in O): -5.21 kcal/mol
Compound: CC1CCCC(O)C1 (stereo not drawn)

solvation free energy, 298 K (in O): 0.05 kcal/mol
Compound: CC1=CCCC(C)=CCC(C)(C)C=CC1

Compound: Cc1c(C(=O)O)cc([N+](=O)[O-])cc1[N+](=O)[O-]
solvation free energy, 298 K (in C1CCOC1): -17.5 kcal/mol
solvation free energy, 298 K (in C1COCCO1): -17.5 kcal/mol
solvation free energy, 298 K (in CC(C)(C)O): -16 kcal/mol
solvation free energy, 298 K (in CC(C)CCO): -15.8 kcal/mol
solvation free energy, 298 K (in CC(C)CO): -15.7 kcal/mol
solvation free energy, 298 K (in CC(C)O): -16.2 kcal/mol
solvation free energy, 298 K (in CCC(C)O): -16.1 kcal/mol
solvation free energy, 298 K (in CCCC(C)O): -15.9 kcal/mol
solvation free energy, 298 K (in CCCCCCCCCCO): -15.3 kcal/mol
solvation free energy, 298 K (in CCCCCCCCO): -15.6 kcal/mol
solvation free energy, 298 K (in CCCCCCCO): -15.9 kcal/mol
solvation free energy, 298 K (in CCCCCCO): -15.8 kcal/mol
solvation free energy, 298 K (in CCCCCO): -16 kcal/mol
solvation free energy, 298 K (in CCCCO): -16.1 kcal/mol
solvation free energy, 298 K (in CCCCOC(C)=O): -16.2 kcal/mol
solvation free energy, 298 K (in CCCO): -16.2 kcal/mol
solvation free energy, 298 K (in CCOC(C)=O): -16.4 kcal/mol
solvation free energy, 298 K (in COC(C)=O): -16.7 kcal/mol
solvation free energy, 298 K (in O): -13.6 kcal/mol

solvation free energy, 298 K (in CN(C)C=O): -2.62 kcal/mol
solvation free energy, 298 K (in O): 0.94 kcal/mol
Compound: C=CCC=C

solvation free energy, 298 K (in CCCCCCCC): -4.6 kcal/mol
solvation free energy, 298 K (in CCCCCCCCCC): -4.55 kcal/mol
Compound: CC(C)C(C)(C)O

solvation free energy, 298 K (in O): -7.4 kcal/mol
Compound: C1CNCCN1

solvation free energy, 298 K (in O): -4.84 kcal/mol
Compound: Cc1cncc(C)c1

solvation free energy, 298 K (in O): -2.78 kcal/mol
Compound: C=C(c1ccccc1)c1ccccc1

solvation free energy, 298 K (in CCCCCCCCCCCCCCCC): -5.94 kcal/mol
solvation free energy, 298 K (in CCCCCCCCO): -6.26 kcal/mol
solvation free energy, 298 K (in NC=O): -4.6 kcal/mol
solvation free energy, 298 K (in O): -2.29 kcal/mol
solvation free energy, 298 K (in [2H]O[2H]): -2.44 kcal/mol
Compound: CCCCCCOC(C)=O

solvation free energy, 298 K (in O): 3.72 kcal/mol
Compound: CC(C)=CCCC(C)CCCC(C)CCCC(C)C (stereo not drawn)

Compound: O=C1c2ccccc2-c2ccccc21
solvation free energy, 298 K (in CC(C)(C)O): -10.4 kcal/mol
solvation free energy, 298 K (in CC(C)CC(C)(C)C): -9.57 kcal/mol
solvation free energy, 298 K (in CC(C)CCO): -10.5 kcal/mol
solvation free energy, 298 K (in CC(C)CO): -10.3 kcal/mol
solvation free energy, 298 K (in CC(C)O): -10.4 kcal/mol
solvation free energy, 298 K (in CC(C)OC(C)C): -10.5 kcal/mol
solvation free energy, 298 K (in CCC(C)O): -10.5 kcal/mol
solvation free energy, 298 K (in CCCCC(CC)CO): -10.5 kcal/mol
solvation free energy, 298 K (in CCCCCC): -9.78 kcal/mol
solvation free energy, 298 K (in CCCCCCC): -9.83 kcal/mol
solvation free energy, 298 K (in CCCCCCCC): -9.86 kcal/mol
solvation free energy, 298 K [1]: -10.5 kcal/mol
solvation free energy, 298 K (in CCCCCCCCCC): -9.9 kcal/mol
solvation free energy, 298 K (in CCCCCCCCCCO): -10.6 kcal/mol
solvation free energy, 298 K (in CCCCCCCCO): -10.7 kcal/mol
solvation free energy, 298 K (in CCCCCCCO): -10.7 kcal/mol
solvation free energy, 298 K (in CCCCCCO): -10.6 kcal/mol
solvation free energy, 298 K (in CCCCCO): -10.6 kcal/mol
solvation free energy, 298 K (in CCCCO): -10.6 kcal/mol
solvation free energy, 298 K (in CCCO): -10.6 kcal/mol
solvation free energy, 298 K (in CCO): -10.6 kcal/mol
solvation free energy, 298 K (in CO): -10.6 kcal/mol
solvation free energy, 298 K (in COC(C)(C)C): -11 kcal/mol
solvation free energy, 298 K (in ClC(Cl)(Cl)Cl): -11.5 kcal/mol
solvation free energy, 298 K (in ClCCl): -12 kcal/mol
solvation free energy, 298 K (in Fc1ccccc1): -11.7 kcal/mol
solvation free energy, 298 K (in O): -5.78 kcal/mol

Compound: Oc1c(Cl)cc(Cl)cc1Cl
solvation free energy, 298 K [1]: -8.28 kcal/mol
solvation free energy, 298 K (in O): -4.95 kcal/mol

solvation free energy, 298 K (in O): -0.15 kcal/mol
Compound: C=C(C)C1CCC2=CCCC(C)C2(C)C1 (stereo not drawn)

solvation free energy, 298 K (in CCCCCCCCCCCCCCCC): -5.74 kcal/mol
solvation free energy, 298 K (in N#Cc1ccccc1): -8 kcal/mol
solvation free energy, 298 K (in O): -6.79 kcal/mol
Compound: OCc1ccccc1

solvation free energy, 298 K (in CC(=O)N(C)C): -18.4 kcal/mol
solvation free energy, 298 K (in CN(C)C=O): -18.5 kcal/mol
solvation free energy, 298 K (in O): 5.74 kcal/mol
Compound: CCCCCCCCCCCCCCCCCCCCCCCCCCC

Compound: CC(C)CO[N+](=O)[O-]
solvation free energy, 298 K (in O): -1.88 kcal/mol

solvation free energy, 298 K (in CCCCCC): -2.12 kcal/mol
solvation free energy, 298 K (in CCCO): -0.96 kcal/mol
Compound: FC(F)(F)C(F)(F)C(F)(F)C(F)(F)C(F)(F)C(F)(F)F

solvation free energy, 298 K (in CCCCCCC): -6.96 kcal/mol
solvation free energy, 298 K (in O): -3.73 kcal/mol
Compound: CCCCCCCCN

solvation free energy, 298 K (in O): -11.5 kcal/mol
Compound: Cc1ccccc1C(=O)N(O)c1ccccc1

solvation free energy, 298 K (in O): -4.38 kcal/mol
Compound: Clc1ccc(-c2c(Cl)c(Cl)cc(Cl)c2Cl)cc1Cl
